Source: patent US20220160751A1, “METHODS OF TREATMENT OF DISEASES AND DISORDERS ASSOCIATED WITH INCREASED TET LEVEL, INCREASED H19 LEVEL, INCREASED LEVEL OF TGF SIGNALING, OR ANY COMBINATION THEREOF” (YALE UNIVERSITY, priority 2019, published 2022)

Experiments:
[1] = tested on: TGFB1, TSP1 and TGFBR2 promoters; test: ChIP-qPCR and QMSP in LX-2 cells; format: cell-based, human; conditions: 48 h, vs siCon
Protocol: The assays were carried out as previously described in (Zhou J et al., 2015, Nat Commun 6:10221; Zhong T et al., 2016, Oncogene 36:2345-2354) with minor modifications. Briefly, gDNA was extracted from LX-2 cells in 24-well plates using Quick-gDNA MicroPrep (Zymo Research Corporation, Irvine, Calif.; D3021). For bisulfite treatment using EZ DNA Methylation-Gold Kit (Zymo, D5006), 90-500 ng of gDNA was used per column and 20-40 μl of elution buffer was used to elute DNA from each column. qPCR was performed in a 15 μl reaction containing 5 μl of eluted DNA using iQSYBRGreen (Bio-Rad, Hercules, Calif.; 1708880) in a Bio-Rad iCycler. PCR was conducted by initial denaturation at 95° C. for 5 min, followed by 40 cycles of 30 sec at 95° C., 30 sec at 60° C., and 30 sec at 72° C. Two sets of PCR primers were designed: one for unmethylated and one for methylated DNA sequences. The PCR primers for methylated DNA were used at a final concentration of 0.6 μM in each PCR reaction. The relative levels of methylated versus unmethylated DNA sequences are presented.
These experiments were performed as previously described (Zhou J et al., 2015, Nat Commun 6:10221) with minor modifications. Briefly, experiments were performed in a 10-cm plate scale using Chromatin Prep Module Kit (Thermo, catalog number 26158) according to the manufacturer's instructions. Agarose beads were used to pre-bind overnight with antibodies against TET3 (Millipore Sigma, ABE290), H3K4me3 (Cell signaling, C42D8) and H3K27me3 (Cell signaling, C36B11). Preimmune IgG was used as a negative control. LX-2 cells were cross-linked with 1% formaldehyde at RT for 10 min and the reaction was stopped by 1× glycine. ChIPs were carried out overnight at 4° C. Primers (Table 1) for the specific promoter regions of TGFB1, TSP1, and TGFBR2 were used to amplify input and ChIP-purified DNA. The relative enrichments of the indicated DNA regions were calculated using the Percent Input Method according to the manufacturer's instructions and were normalized to % input. Data are presented after normalization against background IgG signals.

[2] = tested on: MED12, TGFBR2 and TSP1 promoters; test: ChIP-qPCR, methylation profiling and QMSP in leiomyoma cells; format: cell-based, human; conditions: vs siCon
Protocol: gDNA was extracted from primary leiomyoma cells from one well of 24-well plates using Quick-gDNA MicroPrep (Zymo Research Corporation, Irvine, Calif.; D3021) according to the manufacturer's instructions. For bisulfite treatment, 200 ng of gDNA was used for each column using EZ DNA Methylation-Gold Kit (Zymo, D5006). 100 μl of elution buffer was used to elute gDNA from each column. Real-time quantitative PCR was performed in a 15 μl reaction containing 5 μl of the eluted gDNA using iQSYBRGreen (Bio-Rad, Hercules, Calif.; 1708880) in a Bio-Rad iCycler. Two sets of PCR primers were designed: one for unmethylated and one for methylated DNA sequences. The PCR primers for methylated DNA were used at a final concentration of 0.6 μM in each PCR reaction. PCR was performed by initial denaturation at 95° C. for 5 min, followed by 40 cycles of 30 sec at 95° C., 30 sec at 60° C., and 30 sec at 72° C. Specificity was verified by melting curve analysis and agarose gel electrophoresis. The threshold cycle (Ct) values of each sample were used in the post-PCR data analysis. The relative levels of methylated versus unmethylated DNA sequences are presented.
These experiments were performed as previously described (Zhou J et al., 2015, Nat Commun 6:10221) with minor modifications. Briefly, experiments were performed in a 10-cm plate scale using the Pierce Agarose ChIP Kit (Thermo Scientific, 26156) according to the manufacturer's instructions with minor modifications. Agarose beads were used to pre-bind overnight with antibodies against TET3 (Millipore Sigma, ABE290), H3K4me3 (Cell signaling, C42D8) and H3K27me3 (Cell signaling, C36B11). Preimmune IgG was used as a negative control. Cells were cross-linked with 1% formaldehyde at room temperature for 10 min, and the reaction was stopped by 1× glycine. ChIPs were carried out overnight at 4° C. Primers for the specific promoter regions of MED12, TGFBR2, and TSP1 (FIG. 16A) were used to amplify input and ChIP-purified DNA. The relative enrichments of the indicated DNA regions were calculated using the Percent Input Method according to the manufacturer's instructions and were normalized to % input. Data are presented after normalization against background IgG signals.

siTET3: TET3-specific siRNA (human), Ambion 4392420/s47239 (sense CAGCAACUCCUAGAACUGATT; antisense UCAGUUCUAGGAGUUGCUGGA; chemistry not given here)
H3K4me3 association with promoters [1]: significantly decreased H3K4me3 | H3K27me3 association with promoters [1]: increased H3K27me3 | binding of TET3 to TGFB1, TSP1 and TGFBR2 promoters (ChIP-qPCR) [1]: significantly reduced | methylation in the CTRRs of TGFB1, TSP1 and TGFBR2 (QMSP) [1]: increase in methylation in the CTRRs | ratios of H3K4me3/H3K27me3 [1]: decreased significantly | binding of TET3 to MED12, TGFBR2 and TSP1 promoters (ChIP-qPCR) ([2]; UtLM cells, 48 h): significantly reduced | H3K4me3 association with promoters ([2]; UtLM cells): significantly decreased H3K4me3 | H3K27me3 association with promoters ([2]; UtLM cells): increased H3K27me3 | decrease of the ratios of H3K4me3/H3K27me3 ([2]; UtLM cells): 5-8 fold | methylation of CpGs within the CTRRs of MED12, TGFBR2 and TSP1 promoters ([2]; ht-UtLM genome-wide profiling, confirmed in UtLM by QMSP, 48 h): increased methylation of the CpGs within the CTRRs
